Measured values taken from patent publication US9408852B2, “Method of lowering serum uric acid levels with (S)-tofisopam” (PHARMOS CORPORATION, priority 2011, dated 2016).

Key:
Type in all cases: in vivo, human
serum uric acid [1] = assay: Serum uric acid in postmenopausal women, single- and multiple-dose study (Comparative Example 4); design: Serum uric acid, baseline adjusted data, Median / Serum uric acid, unadjusted data, Mean / Serum uric acid, unadjusted data, Median / Serum uric acid, baseline adjusted data, Mean: unit not given here
Experimental: In a double-blind, randomized, placebo-controlled, single- and multiple-dose study in postmenopausal women with enantiomerically-pure (R)-tofisopam, patients were treated with placebo, 100 mg once a day (qd) of (R)-tofisopam, or 200 mg qd of (R)-tofisopam for the first day of the study, and then with placebo, 100 mg twice a day (bid) of (R)-tofisopam, or 200 mg bid of (R)-tofisopam for Days 2 to 7 of the study.

serum uric acid [2] = assay: Serum uric acid in male and female outpatients with irritable bowel syndrome, 3 months (Comparative Example 5); design: Serum uric acid Actual Value, Mean / Serum uric acid Change from Baseline, Mean / Serum uric acid Actual Value, Median / Serum uric acid Change from Baseline, Median: unit not given here; conditions: for Serum uric acid Actual Value, Mean / Serum uric acid Actual Value, Median / Serum uric acid Change from Baseline, Mean / Serum uric acid Change from Baseline, Median: men and women with irritable bowel syndrome
Experimental: The study lasted 3 months, and patients were treated with 200 mg of (R)-tofisopam twice a day (bid).

serum uric acid [3] = assay: Serum uric acid in female outpatients with irritable bowel syndrome, 3 months (Comparative Example 6); design: Serum uric acid Actual Value, Mean / Serum uric acid Change from Baseline, Mean / Serum uric acid Actual Value, Median / Serum uric acid Change from Baseline, Median: unit not given here; conditions: for Serum uric acid Actual Value, Mean / Serum uric acid Actual Value, Median / Serum uric acid Change from Baseline, Mean / Serum uric acid Change from Baseline, Median: women with irritable bowel syndrome
Experimental: The study lasted 3 months, and patients were treated with 100 mg, 200 mg or 300 mg of enantiomerically-pure (R)-tofisopam twice a day.

[4] = 100 mg bid (qd on D 1, bid on D 2 to D 7), time 6 h
[5] = 100 mg bid (qd on D 1, bid on D 2 to D 7), time 24 h
[6] = 100 mg bid (qd on D 1, bid on D 2 to D 7), time 72 h
[7] = 100 mg bid (qd on D 1, bid on D 2 to D 7), time 143 h
[8] = 100 mg bid (qd on D 1, bid on D 2 to D 7), time 168 h
[9] = 200 mg bid (qd on D 1, bid on D 2 to D 7), time 6 h
[10] = 200 mg bid (qd on D 1, bid on D 2 to D 7), time 24 h
[11] = 200 mg bid (qd on D 1, bid on D 2 to D 7), time 72 h
[12] = 200 mg bid (qd on D 1, bid on D 2 to D 7), time 143 h
[13] = 200 mg bid (qd on D 1, bid on D 2 to D 7), time 168 h

SMILES: CC[C@H]1C(C)=NN=C(c2ccc(OC)c(OC)c2)c2cc(OC)c(OC)cc21 [(R)-tofisopam]
- Serum uric acid, baseline adjusted data, Mean (serum uric acid [1]; [4]): 0
- Serum uric acid, baseline adjusted data, Median (serum uric acid [1]; [4]): 0
- Serum uric acid, unadjusted data, Mean (serum uric acid [1]; [4]): 0.19
- Serum uric acid, unadjusted data, Median (serum uric acid [1]; [4]): 0.19
- Serum uric acid, baseline adjusted data, Mean (serum uric acid [1]; [5]): 0.01
- Serum uric acid, baseline adjusted data, Median (serum uric acid [1]; [5]): 0.01
- Serum uric acid, unadjusted data, Mean (serum uric acid [1]; [5]): 0.20
- Serum uric acid, unadjusted data, Median (serum uric acid [1]; [5]): 0.21
- Serum uric acid, baseline adjusted data, Mean (serum uric acid [1]; [6]): 0.01
- Serum uric acid, baseline adjusted data, Median (serum uric acid [1]; [6]): 0.01
- Serum uric acid, unadjusted data, Mean (serum uric acid [1]; [6]): 0.20
- Serum uric acid, unadjusted data, Median (serum uric acid [1]; [6]): 0.21
- Serum uric acid, baseline adjusted data, Mean (serum uric acid [1]; [7]): 0.01
- Serum uric acid, baseline adjusted data, Median (serum uric acid [1]; [7]): 0.01
- Serum uric acid, unadjusted data, Mean (serum uric acid [1]; [7]): 0.20
- Serum uric acid, unadjusted data, Median (serum uric acid [1]; [7]): 0.20
- Serum uric acid, baseline adjusted data, Mean (serum uric acid [1]; [8]): 0.03
- Serum uric acid, baseline adjusted data, Median (serum uric acid [1]; [8]): 0.03
- Serum uric acid, unadjusted data, Mean (serum uric acid [1]; [8]): 0.23
- Serum uric acid, unadjusted data, Median (serum uric acid [1]; [8]): 0.23
- Effect on serum uric acid levels (serum uric acid [1]; 100 mg or 200 mg qd first day, bid Days 2 to 7): does not decrease
- Serum uric acid, baseline adjusted data, Mean (serum uric acid [1]; [9]): −0.01
- Serum uric acid, baseline adjusted data, Median (serum uric acid [1]; [9]): −0.01
- Serum uric acid, unadjusted data, Mean (serum uric acid [1]; [9]): 0.21
- Serum uric acid, unadjusted data, Median (serum uric acid [1]; [9]): 0.21
- Serum uric acid, baseline adjusted data, Mean (serum uric acid [1]; [10]): −0.01
- Serum uric acid, baseline adjusted data, Median (serum uric acid [1]; [10]): −0.01
- Serum uric acid, unadjusted data, Mean (serum uric acid [1]; [10]): 0.21
- Serum uric acid, unadjusted data, Median (serum uric acid [1]; [10]): 0.21
- Serum uric acid, baseline adjusted data, Mean (serum uric acid [1]; [11]): 0
- Serum uric acid, baseline adjusted data, Median (serum uric acid [1]; [11]): 0
- Serum uric acid, unadjusted data, Mean (serum uric acid [1]; [11]): 0.22
- Serum uric acid, unadjusted data, Median (serum uric acid [1]; [11]): 0.22
- Serum uric acid, baseline adjusted data, Mean (serum uric acid [1]; [12]): −0.01
- Serum uric acid, baseline adjusted data, Median (serum uric acid [1]; [12]): 0
- Serum uric acid, unadjusted data, Mean (serum uric acid [1]; [12]): 0.21
- Serum uric acid, unadjusted data, Median (serum uric acid [1]; [12]): 0.21
- Serum uric acid, baseline adjusted data, Mean (serum uric acid [1]; [13]): 0.01
- Serum uric acid, baseline adjusted data, Median (serum uric acid [1]; [13]): 0.01
- Serum uric acid, unadjusted data, Mean (serum uric acid [1]; [13]): 0.22
- Serum uric acid, unadjusted data, Median (serum uric acid [1]; [13]): 0.23
- Serum uric acid levels over time (serum uric acid [1]; up to 168 hours (7 days) after initiation of treatment): remained constant
- Serum uric acid Actual Value, Mean (serum uric acid [2]; 200 mg bid, 3 months Endpoint): 5.20
- Serum uric acid Actual Value, Median (serum uric acid [2]; 200 mg bid, 3 months Endpoint): 5.10
- Serum uric acid Change from Baseline, Mean (serum uric acid [2]; 200 mg bid, 3 months Endpoint): −0.06
- Serum uric acid Change from Baseline, Median (serum uric acid [2]; 200 mg bid, 3 months Endpoint): 0.00
- Serum uric acid Actual Value, Mean (serum uric acid [2]; 200 mg bid, Day 7): 5.18
- Serum uric acid Actual Value, Median (serum uric acid [2]; 200 mg bid, Day 7): 5.00
- Serum uric acid Change from Baseline, Mean (serum uric acid [2]; 200 mg bid, Day 7): −0.05
- Serum uric acid Change from Baseline, Median (serum uric acid [2]; 200 mg bid, Day 7): 0.00
- Serum uric acid Actual Value, Mean (serum uric acid [2]; 200 mg bid, Day 14): 5.22
- Serum uric acid Actual Value, Median (serum uric acid [2]; 200 mg bid, Day 14): 5.05
- Serum uric acid Change from Baseline, Mean (serum uric acid [2]; 200 mg bid, Day 14): −0.01
- Serum uric acid Change from Baseline, Median (serum uric acid [2]; 200 mg bid, Day 14): −0.10
- Serum uric acid Actual Value, Mean (serum uric acid [2]; 200 mg bid, Day 28): 5.18
- Serum uric acid Actual Value, Median (serum uric acid [2]; 200 mg bid, Day 28): 5.00
- Serum uric acid Change from Baseline, Mean (serum uric acid [2]; 200 mg bid, Day 28): −0.07
- Serum uric acid Change from Baseline, Median (serum uric acid [2]; 200 mg bid, Day 28): −0.10
- Serum uric acid Actual Value, Mean (serum uric acid [2]; 200 mg bid, Day 42): 5.46
- Serum uric acid Actual Value, Median (serum uric acid [2]; 200 mg bid, Day 42): 5.70
- Serum uric acid Change from Baseline, Mean (serum uric acid [2]; 200 mg bid, Day 42): 0.12
- Serum uric acid Change from Baseline, Median (serum uric acid [2]; 200 mg bid, Day 42): 0.20
- Serum uric acid Actual Value, Mean (serum uric acid [2]; 200 mg bid, Day 56): 5.40
- Serum uric acid Actual Value, Median (serum uric acid [2]; 200 mg bid, Day 56): 5.20
- Serum uric acid Change from Baseline, Mean (serum uric acid [2]; 200 mg bid, Day 56): 0.02
- Serum uric acid Change from Baseline, Median (serum uric acid [2]; 200 mg bid, Day 56): 0.00
- Serum uric acid Actual Value, Mean (serum uric acid [2]; 200 mg bid, Day 84): 5.37
- Serum uric acid Actual Value, Median (serum uric acid [2]; 200 mg bid, Day 84): 5.30
- Serum uric acid Change from Baseline, Mean (serum uric acid [2]; 200 mg bid, Day 84): 0.03
- Serum uric acid Change from Baseline, Median (serum uric acid [2]; 200 mg bid, Day 84): 0.10
- Effect on serum uric acid levels (serum uric acid [2]; 200 mg twice a day (bid), 3 months, male and female outpatients with irritable bowel syndrome): does not decrease
- Serum uric acid levels over time (serum uric acid [2]; up to 3 months after initiation of treatment, 200 mg bid): remained constant
- Serum uric acid Actual Value, Mean (serum uric acid [3]; 100 mg BID, 3 months Endpoint): 4.94
- Serum uric acid Actual Value, Median (serum uric acid [3]; 100 mg BID, 3 months Endpoint): 4.90
- Serum uric acid Change from Baseline, Mean (serum uric acid [3]; 100 mg BID, 3 months Endpoint): 0.22
- Serum uric acid Change from Baseline, Median (serum uric acid [3]; 100 mg BID, 3 months Endpoint): 0.20
- Serum uric acid Actual Value, Mean (serum uric acid [3]; 100 mg BID, Week 12): 4.91
- Serum uric acid Actual Value, Median (serum uric acid [3]; 100 mg BID, Week 12): 4.80
- Serum uric acid Change from Baseline, Mean (serum uric acid [3]; 100 mg BID, Week 12): 0.23
- Serum uric acid Change from Baseline, Median (serum uric acid [3]; 100 mg BID, Week 12): 0.20
- Effect on serum uric acid levels (serum uric acid [3]; 100 mg, 200 mg or 300 mg twice a day, 3 months, female outpatients with irritable bowel syndrome): does not decrease
- Serum uric acid Actual Value, Mean (serum uric acid [3]; 200 mg BID, 3 months Endpoint): 4.82
- Serum uric acid Actual Value, Median (serum uric acid [3]; 200 mg BID, 3 months Endpoint): 4.60
- Serum uric acid Change from Baseline, Mean (serum uric acid [3]; 200 mg BID, 3 months Endpoint): −0.19
- Serum uric acid Change from Baseline, Median (serum uric acid [3]; 200 mg BID, 3 months Endpoint): −0.20
- Serum uric acid Actual Value, Mean (serum uric acid [3]; 200 mg BID, Week 12): 4.82
- Serum uric acid Actual Value, Median (serum uric acid [3]; 200 mg BID, Week 12): 4.60
- Serum uric acid Change from Baseline, Mean (serum uric acid [3]; 200 mg BID, Week 12): −0.20
- Serum uric acid Change from Baseline, Median (serum uric acid [3]; 200 mg BID, Week 12): −0.20
- Serum uric acid Actual Value, Mean (serum uric acid [3]; 300 mg BID, 3 months Endpoint): 5.04
- Serum uric acid Actual Value, Median (serum uric acid [3]; 300 mg BID, 3 months Endpoint): 5.00
- Serum uric acid Change from Baseline, Mean (serum uric acid [3]; 300 mg BID, 3 months Endpoint): −0.05
- Serum uric acid Change from Baseline, Median (serum uric acid [3]; 300 mg BID, 3 months Endpoint): 0.00
- Serum uric acid Actual Value, Mean (serum uric acid [3]; 300 mg BID, Week 12): 5.02
- Serum uric acid Actual Value, Median (serum uric acid [3]; 300 mg BID, Week 12): 4.95
- Serum uric acid Change from Baseline, Mean (serum uric acid [3]; 300 mg BID, Week 12): −0.06
- Serum uric acid Change from Baseline, Median (serum uric acid [3]; 300 mg BID, Week 12): −0.05
- Serum uric acid levels over time (serum uric acid [3]; up to 3 months after initiation of treatment, 100, 200 or 300 mg twice a day): remained constant
